According to ChEMBL document CHEMBL1909046, “DrugMatrix in vitro pharmacology data”:

Tests used:
[1] = molecular target: T1, Alpha-1B adrenergic receptor (Rattus norvegicus, UniProt P15823); test: DRUGMATRIX: Alpha-1B adrenergic receptor radioligand binding (ligand: prazosin); type: cell membranes, Wistar, Liver, Membrane; settings: Not Active = under 50% inhibition at 10 µM
T1 sequence (P15823 whole entry): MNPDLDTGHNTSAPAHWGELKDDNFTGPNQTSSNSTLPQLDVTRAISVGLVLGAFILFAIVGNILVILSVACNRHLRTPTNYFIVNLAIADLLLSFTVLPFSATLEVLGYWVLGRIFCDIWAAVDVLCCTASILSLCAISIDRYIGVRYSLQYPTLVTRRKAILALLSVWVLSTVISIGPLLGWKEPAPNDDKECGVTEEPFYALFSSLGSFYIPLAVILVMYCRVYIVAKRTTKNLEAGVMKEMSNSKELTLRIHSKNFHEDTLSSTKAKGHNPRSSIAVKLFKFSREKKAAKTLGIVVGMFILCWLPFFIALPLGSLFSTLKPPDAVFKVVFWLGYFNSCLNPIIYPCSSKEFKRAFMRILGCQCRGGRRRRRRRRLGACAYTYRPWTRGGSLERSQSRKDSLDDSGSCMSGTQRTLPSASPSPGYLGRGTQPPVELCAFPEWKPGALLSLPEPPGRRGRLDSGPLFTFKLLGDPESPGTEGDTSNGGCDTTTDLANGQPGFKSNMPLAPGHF

[2] = DRUGMATRIX: Phosphodiesterase PDE3 enzyme inhibition (substrate: [3H]cAMP + cAMP); type: tissue-based, Homo sapiens; settings: platelet; Not Active = under 50% inhibition at 10 µM
[3] = molecular target: Protein kinase C alpha type (Homo sapiens, UniProt P17252); type: cell-based; settings: sf9;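 note: inhibition of PKCalpha kinase activity measured in an enzyme assay with histone as the phosphorylation substrate; in other assays of this panel Not Active means under 50% inhibition at 10 µM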
Substance-P receptor = Substance-P receptor (Homo sapiens, UniProt P25103); type: cell membranes, CHO, Membrane; settings: cho; note: in other assays of this panel Not Active means under 50% inhibition at 10 µM
Chain of Substance-P receptor (P25103 whole entry): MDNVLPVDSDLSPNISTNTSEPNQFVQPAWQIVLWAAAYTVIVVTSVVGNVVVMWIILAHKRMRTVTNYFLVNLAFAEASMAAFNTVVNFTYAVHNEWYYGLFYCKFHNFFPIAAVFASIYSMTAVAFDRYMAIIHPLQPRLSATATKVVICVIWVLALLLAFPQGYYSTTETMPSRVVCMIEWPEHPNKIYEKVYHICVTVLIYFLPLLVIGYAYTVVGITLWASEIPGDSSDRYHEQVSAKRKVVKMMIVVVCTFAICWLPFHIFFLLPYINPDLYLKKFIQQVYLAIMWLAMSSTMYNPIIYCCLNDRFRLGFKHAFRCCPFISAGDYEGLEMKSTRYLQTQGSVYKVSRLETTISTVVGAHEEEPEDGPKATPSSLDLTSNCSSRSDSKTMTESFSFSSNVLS

Cytochrome P450 2E1 = Cytochrome P450 2E1 (Homo sapiens, UniProt P05181); settings: bti-tn-5b1-4; note: in other assays of this panel Not Active means under 50% inhibition at 10 µM
Chain of Cytochrome P450 2E1 (P05181 whole entry): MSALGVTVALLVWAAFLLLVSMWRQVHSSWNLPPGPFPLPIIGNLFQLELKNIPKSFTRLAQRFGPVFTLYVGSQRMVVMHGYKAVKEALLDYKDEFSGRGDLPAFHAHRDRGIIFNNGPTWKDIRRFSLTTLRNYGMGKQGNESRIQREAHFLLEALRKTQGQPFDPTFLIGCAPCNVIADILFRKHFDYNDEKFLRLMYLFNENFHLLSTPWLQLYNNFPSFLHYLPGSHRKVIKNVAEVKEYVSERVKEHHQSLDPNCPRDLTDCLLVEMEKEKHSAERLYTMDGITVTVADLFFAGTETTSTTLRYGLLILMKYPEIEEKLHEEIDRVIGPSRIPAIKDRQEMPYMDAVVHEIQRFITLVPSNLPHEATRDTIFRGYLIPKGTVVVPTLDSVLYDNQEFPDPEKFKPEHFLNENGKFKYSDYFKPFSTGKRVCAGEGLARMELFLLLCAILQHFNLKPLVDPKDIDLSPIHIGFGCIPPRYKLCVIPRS

D(1A) dopamine receptor = D(1A) dopamine receptor (Homo sapiens, UniProt P21728); test: DRUGMATRIX: Dopamine D1 radioligand binding (ligand: [3H] SCH-23390); type: cell membranes, CHO, Membrane; settings: cho; Not Active = under 50% inhibition at 10 µM
Chain of D(1A) dopamine receptor (P21728 whole entry): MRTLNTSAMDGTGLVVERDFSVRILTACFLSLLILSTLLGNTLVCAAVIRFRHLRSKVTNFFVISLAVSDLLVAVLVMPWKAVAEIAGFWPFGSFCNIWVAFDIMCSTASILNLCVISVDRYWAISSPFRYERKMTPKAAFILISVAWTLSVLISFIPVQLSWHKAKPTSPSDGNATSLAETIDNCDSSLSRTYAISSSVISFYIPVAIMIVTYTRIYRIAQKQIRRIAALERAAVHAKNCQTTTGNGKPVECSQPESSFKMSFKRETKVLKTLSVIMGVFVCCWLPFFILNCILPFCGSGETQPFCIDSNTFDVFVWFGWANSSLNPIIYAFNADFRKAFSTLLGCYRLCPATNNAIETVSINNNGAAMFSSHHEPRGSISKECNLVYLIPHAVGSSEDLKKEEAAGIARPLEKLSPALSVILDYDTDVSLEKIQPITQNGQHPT

Cathepsin G = molecular target: T2, Cathepsin G (Homo sapiens, UniProt P08311); type: tissue-based; settings: neutrophil;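 note: inhibition of Cathepsin G enzyme activity, tested on an AMC-conjugated peptide substrate; in other assays of this panel Not Active means under 50% inhibition at 10 µM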
T2 sequence (P08311 whole entry): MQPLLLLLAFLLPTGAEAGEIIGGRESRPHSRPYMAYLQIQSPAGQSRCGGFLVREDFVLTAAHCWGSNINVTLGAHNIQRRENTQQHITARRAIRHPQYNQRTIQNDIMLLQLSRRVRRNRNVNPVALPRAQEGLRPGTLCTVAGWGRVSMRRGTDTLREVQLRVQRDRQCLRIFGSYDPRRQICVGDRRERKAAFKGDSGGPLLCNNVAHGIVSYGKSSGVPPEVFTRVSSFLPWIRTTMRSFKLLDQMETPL

CCn1cc(C(=O)O)c(=O)c2cnc(N3CCCC3)nc21 [PIROMIDIC ACID]
Not Active: IC50 [1] | IC50 [2] | Ki [2] | IC50 [3] | IC50 (Substance-P receptor) | IC50 (Cytochrome P450 2E1) | Ki (Cytochrome P450 2E1) | IC50 (D(1A) dopamine receptor) | IC50 (Cathepsin G)

C[n+]1ccccc1/C=N/O.[Cl-] [PRALIDOXIME CHLORIDE]
Not Active: IC50 [1] | IC50 [2] | Ki [2] | IC50 [3] | IC50 (Substance-P receptor) | IC50 (Cytochrome P450 2E1) | Ki (Cytochrome P450 2E1) | IC50 (D(1A) dopamine receptor) | IC50 (Cathepsin G)

C[C@]12C=CC(=O)C=C1CC[C@@H]1[C@@H]2[C@@H](O)C[C@@]2(C)[C@H]1CC[C@]2(O)C(=O)CO [PREDNISOLONE]
Not Active: IC50 [1] | IC50 [2] | Ki [2] | IC50 [3] | IC50 (Substance-P receptor) | IC50 (Cytochrome P450 2E1) | Ki (Cytochrome P450 2E1) | IC50 (D(1A) dopamine receptor) | IC50 (Cathepsin G)

CC(=O)[C@H]1[C@H](C#N)C[C@H]2[C@@H]3CC=C4C[C@@H](O)CC[C@]4(C)[C@H]3CC[C@@]21C [PREGNENOLONE CARBONITRILE]
Not Active: IC50 [1] | IC50 [2] | Ki [2] | IC50 [3] | IC50 (Substance-P receptor) | IC50 (Cytochrome P450 2E1) | Ki (Cytochrome P450 2E1) | IC50 (D(1A) dopamine receptor) | IC50 (Cathepsin G)

CCCN(CCC)S(=O)(=O)c1ccc(C(=O)O)cc1 [PROBENECID]
Not Active: IC50 [1] | IC50 [2] | Ki [2] | IC50 [3] | IC50 (Substance-P receptor) | IC50 (Cytochrome P450 2E1) | Ki (Cytochrome P450 2E1) | IC50 (D(1A) dopamine receptor) | IC50 (Cathepsin G)

CCCOc1ccc(C(=O)OCCN(CC)CC)cc1N [PROPARACAINE]
Not Active: IC50 [1] | IC50 [2] | Ki [2] | IC50 [3] | IC50 (Substance-P receptor) | IC50 (Cytochrome P450 2E1) | Ki (Cytochrome P450 2E1) | IC50 (D(1A) dopamine receptor) | IC50 (Cathepsin G)

C[C@@H]1O[C@@H](O[C@@H]2C=C3CC[C@@H]4[C@H](CC[C@]5(C)[C@@H](c6ccc(=O)oc6)CC[C@]45O)[C@@]3(C)CC2)[C@H](O)[C@H](O)[C@H]1O [PROSCILLARIDIN]
Not Active: IC50 [1] | IC50 [2] | Ki [2] | IC50 [3] | IC50 (Substance-P receptor) | IC50 (Cytochrome P450 2E1) | Ki (Cytochrome P450 2E1) | IC50 (D(1A) dopamine receptor) | IC50 (Cathepsin G)

Oc1cccc(O)c1O [PYROGALLOL]
Not Active: IC50 [1] | IC50 [2] | Ki [2] | IC50 [3] | IC50 (Substance-P receptor) | IC50 (Cytochrome P450 2E1) | Ki (Cytochrome P450 2E1) | IC50 (D(1A) dopamine receptor) | IC50 (Cathepsin G)

AURANOFIN
Not Active: IC50 [1] | Ki [1] | IC50 [2] | Ki [2] | IC50 [3] | Ki [3] | IC50 (Substance-P receptor) | Ki (Substance-P receptor) | IC50 (Cytochrome P450 2E1) | Ki (Cytochrome P450 2E1) | IC50 (D(1A) dopamine receptor) | Ki (D(1A) dopamine receptor) | IC50 (Cathepsin G) | Ki (Cathepsin G)

GADOPENTETATE DIMEGLUMINE
Not Active: IC50 [1] | Ki [1] | IC50 [2] | Ki [2] | IC50 [3] | Ki [3] | IC50 (Substance-P receptor) | Ki (Substance-P receptor) | IC50 (Cytochrome P450 2E1) | Ki (Cytochrome P450 2E1) | IC50 (D(1A) dopamine receptor) | Ki (D(1A) dopamine receptor) | IC50 (Cathepsin G) | Ki (Cathepsin G)

GENTAMICIN
Not Active: IC50 [1] | Ki [1] | IC50 [2] | Ki [2] | IC50 [3] | Ki [3] | IC50 (Substance-P receptor) | Ki (Substance-P receptor) | IC50 (Cytochrome P450 2E1) | Ki (Cytochrome P450 2E1) | IC50 (D(1A) dopamine receptor) | Ki (D(1A) dopamine receptor) | IC50 (Cathepsin G) | Ki (Cathepsin G)

GRAMICIDIN
Not Active: IC50 [1] | Ki [1] | IC50 [2] | Ki [2] | IC50 [3] | Ki [3] | IC50 (Substance-P receptor) | Ki (Substance-P receptor) | IC50 (Cytochrome P450 2E1) | Ki (Cytochrome P450 2E1) | IC50 (D(1A) dopamine receptor) | Ki (D(1A) dopamine receptor) | IC50 (Cathepsin G) | Ki (Cathepsin G)

NYSTATIN
Not Active: IC50 [1] | Ki [1] | IC50 [2] | Ki [2] | IC50 [3] | Ki [3] | IC50 (Substance-P receptor) | Ki (Substance-P receptor) | IC50 (Cytochrome P450 2E1) | Ki (Cytochrome P450 2E1) | IC50 (D(1A) dopamine receptor) | Ki (D(1A) dopamine receptor) | IC50 (Cathepsin G) | Ki (Cathepsin G)
